Here are results for one compound from patent US12138267B2, “Methods of treating respiratory depression modulated by a non-opioid agent” (Enalare Therapeutics Inc., priority 2021, dated 2024).

One data set can be described thus: clinical. As to conditions: for AUC(0-t): both, human, plasma, intravenous, propofol Mean AUClast. As to the method:
A study is conducted for Compound A. The study is a 3-period, randomized, placebo-controlled, double-blind, crossover study in healthy subjects. The primary objective of the study was to determine the safety and tolerability of Compound A in healthy participants after low and high doses of Compound A under hypoxic and hypercapnic conditions in conjunction with low and high doses of propofol. Another primary objective of the study was to determine the ventilatory response of low and high doses of Compound A under hypoxic and hypercapnic conditions in conjunction with low and high doses of propofol. A secondary objective of the study was to determine the cardiovascular response of low and high doses of Compound A during hypoxic and hypercapnic conditions in conjunction with low and high doses of propofol. Another secondary objective of the study was to evaluate the ventilatory response after administration of Compound A and propofol, under different ventilatory conditions: hypoxia and hyperoxic exposure at normocapnia followed by the same sequence at hypercapnia. The study was conducted in conformance with Good Clinical Practice. The study was a randomized, double-blinded, placebo-controlled, three-way crossover study to assess the safety, tolerability, respiratory PD, and PK of Compound A in healthy male and female participants. Subjects were initially screened up to 6 weeks prior to randomization. Following successful initial medical screening, they were scheduled for the study and receive a randomization number. Subjects underwent 3 separate treatment periods. In each of these periods, low or high doses of Compound A or placebo were continuously perfused throughout for a period of 270 minutes. During each period, subjects received different intravenous propofol dosages or placebo in set order: placebo—propofol low dose—propofol high dose. Each treatment session of propofol or placebo is […]. During each propofol treatment session, different ventilatory conditions are applied, hypoxia and hypercapnia (FIG. 1). […] Each assessment period (i.e., “run”) consists of a hypoxia/hyperoxic exposure at normocapnia followed by one the same sequence at hypercapnia. […] The participants received the following treatments in random order during the dosing periods: • Placebo+placebo/propofol low/propofol high/ • Compound A low+placebo/propofol low/propofol high • Compound A high+placebo/propofol low/propofol high Subjects were admitted to study site on Day −1 for pre-dose activities and eligibility was reassessed and stayed overnight. On each dosing day (Day 1), subjects were transferred to a special unit at study site in the morning (or early afternoon) after a minimum 8 hour overnight fasting. After placement of the respiratory and cardiovascular monitoring/assessment devices including an arterial line, subjects assumed the semi-recumbent position and sufficient time was allowed for subjects to resume a normal breathing pattern. After completion of baseline evaluations, all measurements were performed as per the schedule of assessments. Upon completion of all measurements on the dosing day, subjects were monitored overnight and assessed the next morning (at least 12 hours post study treatments) prior to discharge (Day 2). Subjects were not immediately discharged in cases where prolonged care is required (e.g., due to adverse event, residual sedation etc.) and were treated as necessary. Duration of Treatment: Participation was approximately 10 weeks divided as follows: • Screening: Up to 42 days before first dosing • Treatment phase of approximately 21 days, including three treatment and study assessment periods of 3 days each with approximately 7 days (minimum of 3) between dosing days • Follow up 7 days after last dosing Healthy adult subjects were selected for the study.

The next data set has as its system healthy participants. The conditions noted are these: propofol during placebo infusion.
The mark [1] stands for this setting: during infusion with Compound A high dose.
The mark [2] stands for this setting: during infusion with Compound A low dose.

Usually AUC(0-t) stands for the area under the concentration-time curve up to a stated or last time point. Turning to `CC(C)c1cccc(C(C)C)c1O` [propofol], the AUC(0-t) was 6150 ± 1170 ng·h/mL in “clinical” (setting [1]), 5750 ± 1180 ng·h/mL in “clinical” (setting [2]) and 4600 ± 548 ng·h/mL in “clinical” (during infusion with placebo). For the same compound, the “propofol peak plasma concentration, mean (±SD)” value in the data set “clinical” (setting [1]) is 2620.0 ± 1093.86 ng/mL; in the data set “clinical” (setting [2]), 2534.2 ± 1192.34 ng/mL; in “clinical” (during infusion with placebo), 1880.8 ± 265.45 ng/mL. The “Propofol plasma concentrations during infusion with Compound A compared to placebo infusion” value in the data set “clinical” (in vivo) was “tended to be higher during infusion with Compound A”. For the same compound, the “Propofol plasma concentrations versus targeted concentration” value in “clinical” (propofol high dose infusion, target 1200 ng/mL) is listed as “exceeding those targeted”. In addition, the “propofol Geometric mean Cav200-270 min” value in the data set “clinical” (propofol high dose interval, range across treatments) lay within 1525.12 to 1862.45 ng/mL. Also, the “propofol Geometric mean Cav115-185 min” value in “clinical” (propofol low dose interval, range across treatments) lay in the range of 452.62 to 559.80 ng/mL. The “Effect of propofol on hypoxic sensitivity” value in the data set on healthy participants is recorded as “decreased hypoxic sensitivity”.
